The text below walks through data of patent publication EP4410284A1, “COMPOUND AND METHOD FOR THE TREATMENT OF ZELLWEGER SPECTRUM DISORDER” (Apteeus, priority 2023, dated 2024).

Read-outs that look alike come from different tables or passages of the source.

Data set [1] deals with GM16513 cells. Briefly: Catalase import immunofluorescence, high-content screening (% importing cells). It is filed as cell-based, human. To be noted: GM16513 cells, 3 days; for EC50 / Emax: Homo sapiens, 72 h, dose response with 6 concentrations; for EC50: read-out: EC50; for Emax: read-out: Max Efficacy (% Importing cells).
The subject of data set [2] is GM16513 cells. It is filed as cell-based. To be noted: 3 days, PI positive cells (dead cells).
Description: (§1) Images were acquired using the EnSight multimode plate reader (PerkinElmer) and analysis was done using Columbus analysis software (PerkinElmer). […] Then the total number of cells and the % of dead cells was calculated.
(§2) All HDAC inhibitors were tested at 1.3 and 10 µM for 3 days on GM16513 and PEX405 cells.
The test system of data set [3] is PEX405 cells. Briefly: Catalase import immunofluorescence, high-content screening (% importing cells). In kind it is cell-based, human. Conditions: PEX405 cells, 3 days.
Description: Primary fibroblasts were seeded at 500-700 cells per well in 384-well plates and grown at 37°C overnight. Cells were treated with test compounds or 0.1% DMSO for 3 days. After 3 days and a wash with PBS, cells were fixed with 4% paraformaldehyde (Electron Microscopy Sciences) in PBS for 20 minutes. After 3 washes with PBS, the cells were permeabilized and blocked with 0.3% Triton X-100, 1% BSA in PBS for 30 minutes at room temperature followed by 3 washes with 1% BSA in PBS. The cells were incubated with a rabbit Catalase polyclonal antibody (#12980 Cell signaling) overnight at 4°C. Following 3 washes with PBS containing 0.1% Tween-20, the cells were incubated for 1 h at room temperature with a conjugated goat anti-rabbit secondary antibody Alexa Fluor 647 (Ab150083-Abcam). The cells were then washed 3 times with PBS and Hoechst 33342 (H3570-ThermoFisher Scientific) + HCS Cellmask Blue (H32720 - ThermoFisher Scientific) staining was performed at 0.1 µg/ml and 0.4 µg/mL respectively for 30 minutes at room temperature. The cells were finally washed 3 times with PBS and fluorescent images were acquired using the INCell Analyzer 6000 imaging platform (GE Healthcare Life Sciences).
Images analysis was done using Columbus analysis software (PerkinElmer). DAPI channel was used to find nuclei (Hoechst 33342) and cytoplasm (HCS CellMask Blue) and border objects were removed. Cy5 channel (AlexaFluor 647) was used to find spots corresponding to peroxisomes which correctly import catalase. Cells were classified as importing or non-importing cells using a linear classifier method after training with images of wells containing Healthy cells and PEX1 deficient cells. The number of importing or non-importing cells was calculated. Finally, results were expressed as % of importing cells.
The cytotoxicity was assessed in parallel using a double nucleus staining with Hoechst 33342 and Propidium Iodide (PI).
Data set [4] deals with PEX405 cells. In kind it is cell-based. To be noted: 3 days, PI positive cells (dead cells).
Description: as §1, §2

For `Nc1ccccc1NC(=O)c1cnccn1` [BG45], the “% Importing cells” value was 15% in data set [1] (1.3 µM), 30% in data set [1] (10 µM), 4% in data set [3] (1.3 µM) and 5% in data set [3] (10 µM). In addition, the “% PI+ cells” value is on record as 1% in data set [2] (1.3 µM), 1% in data set [2] (10 µM), 1% in data set [4] (1.3 µM) and 2% in data set [4] (10 µM).
With `Nc1ccccc1NC(=O)CCCCCCC(=O)Nc1ccccc1` [BML-210], the “% Importing cells” value in data set [1] (1.3 µM) was found to be 24%; in data set [1] (10 µM), 73%; in data set [3] (1.3 µM) it was 7%; in data set [3] (10 µM) it was 19%. Besides, the “% PI+ cells” value came out at 2% in data set [2] (1.3 µM), 3% in data set [2] (10 µM), 1% in data set [4] (1.3 µM) and 1% in data set [4] (10 µM).
As to `CC(=O)Nc1ccc(C(=O)Nc2ccc(F)cc2N)cc1` [BRD3308], the “% Importing cells” value in data set [1] (1.3 µM) amounted to 12%; in data set [1] (10 µM) it was 16%; in data set [3] (1.3 µM) it was 4%; in data set [3] (10 µM) it was 5%. Moreover, the “% PI+ cells” value in data set [2] (1.3 µM) was 2%; in data set [2] (10 µM), 2%; in data set [4] (1.3 µM) it was 1%; in data set [4] (10 µM) it was 1%.
Consider `O=C(NO)c1cccc(C(=O)NCCc2ccccc2)c1` [BRD73954], for which the “% Importing cells” value in data set [1] (1.3 µM) is 19%; in data set [1] (10 µM) it was 23%; in data set [3] (1.3 µM), 3%; in data set [3] (10 µM), 4%. Further, the “% PI+ cells” value in data set [2] (1.3 µM) was determined as 1%; in data set [2] (10 µM), 1%; in data set [4] (1.3 µM) it was 0%; in data set [4] (10 µM) it was 1%.
Regarding `CCN1CCN(C(c2cccnc2)c2cc(Cl)c3cccnc3c2O)CC1` (centres unmarked) [BRD 4354], the “% Importing cells” value in data set [1] (1.3 µM) was 21%; in data set [1] (10 µM) it was 30%; in data set [3] (1.3 µM), 4%; in data set [3] (10 µM), 10%. Also, the “% PI+ cells” value in data set [2] (1.3 µM) is given as 1%; in data set [2] (10 µM) it was 3%; in data set [4] (1.3 µM), 0%; in data set [4] (10 µM) it was 3%.
With `CC(=O)Nc1ccc(C(=O)Nc2cc(-c3cccs3)ccc2N)cc1` [BRD-6929], the “% Importing cells” value in data set [1] (1.3 µM) amounted to 66%; in data set [1] (10 µM) it was 88%; in data set [3] (1.3 µM), 20%; in data set [3] (10 µM), 38%. The “% PI+ cells” value came to 1% in data set [2] (1.3 µM), 3% in data set [2] (10 µM), 1% in data set [4] (1.3 µM) and 1% in data set [4] (10 µM).
Take `CCCCOc1ccc(CC(=O)NO)cc1` [Bufexamac]: the “% Importing cells” value in data set [1] (1.3 µM) came to 26%; in data set [1] (10 µM) it was 25%; in data set [3] (1.3 µM) it was 4%; in data set [3] (10 µM), 50%. The “% PI+ cells” value is listed as 2% in data set [2] (1.3 µM), 1% in data set [2] (10 µM), 1% in data set [4] (1.3 µM) and 0% in data set [4] (10 µM).
Turning to `CC(C)(C)OC(=O)Nc1ccc(-c2cc(C(=O)NCCCCCCC(=O)NO)no2)cc1` [CAY10603], the “% Importing cells” value turned out to be 73% in data set [1] (1.3 µM), 85% in data set [1] (10 µM), 22% in data set [3] (1.3 µM) and 11% in data set [3] (10 µM). Also, the “% PI+ cells” value in data set [2] (1.3 µM) was found to be 2%; in data set [2] (10 µM), 31%; in data set [4] (1.3 µM), 1%; in data set [4] (10 µM) it was 35%.
Take `CCOC(=O)c1cnc(NC2(c3ccccc3)CC2)nc1` [CG347B]: the “% Importing cells” value was determined as 25% in data set [1] (1.3 µM), 21% in data set [1] (10 µM), 4% in data set [3] (1.3 µM) and 5% in data set [3] (10 µM). For the same compound, the “% PI+ cells” value in data set [2] (1.3 µM) was 1%; in data set [2] (10 µM), 1%; in data set [4] (1.3 µM), 1%; in data set [4] (10 µM), 0%.
`C#Cc1cccc(Nc2ncnc3cc(OC)c(OCCCCCCC(=O)NO)cc23)c1` [CUDC-101]: the “% Importing cells” value amounted to 60% in data set [1] (1.3 µM), 90% in data set [1] (10 µM), 23% in data set [3] (1.3 µM) and 49% in data set [3] (10 µM). For the same compound, the EC50 – broadly, the concentration that produces a half-maximal response – in data set [1] was found to be 700 nM. In addition, the Emax in data set [1] is 100%. Moreover, the “% PI+ cells” value was determined as 2% in data set [2] (1.3 µM), 23% in data set [2] (10 µM), 1% in data set [4] (1.3 µM) and 44% in data set [4] (10 µM).
In the case of `O=C(CCCCCCNC(=O)c1cnc(N(c2ccccc2)c2ccccc2Cl)nc1)NO` [Citarinostat], the “% Importing cells” value in data set [1] (1.3 µM) is recorded as 47%; in data set [1] (10 µM), 90%; in data set [3] (1.3 µM) it was 9%; in data set [3] (10 µM), 53%. Moreover, in data set [1], the half-maximal effective concentration (EC50) was 3200 nM. Besides, in data set [1], the Emax turned out to be 93%. In addition, the “% PI+ cells” value in data set [2] (1.3 µM) came out at 1%; in data set [2] (10 µM), 4%; in data set [4] (1.3 µM), 0%; in data set [4] (10 µM), 2%.
For `Nc1ccccc1NC(=O)c1ccc(CCCC(=O)Nc2ccc([C@@H]3C[C@H]3N)cc2)cc1` [Corin], the “% Importing cells” value was found to be 59% in data set [1] (1.3 µM), 44% in data set [1] (10 µM), 17% in data set [3] (1.3 µM) and 11% in data set [3] (10 µM). In addition, the “% PI+ cells” value was found to be 5% in data set [2] (1.3 µM), 34% in data set [2] (10 µM), 2% in data set [4] (1.3 µM) and 66% in data set [4] (10 µM).
With `Nc1[nH]c(=O)nc2c1ncn2[C@@H]1O[C@H](CO)[C@@H](O)[C@H]1O` [Crotonoside], the “% Importing cells” value in data set [1] (1.3 µM) was 20%; in data set [1] (10 µM) it was 18%; in data set [3] (1.3 µM) it was 3%; in data set [3] (10 µM), 3%. Besides, the “% PI+ cells” value stood at 1% in data set [2] (1.3 µM), 1% in data set [2] (10 µM), 0% in data set [4] (1.3 µM) and 1% in data set [4] (10 µM).
Consider `O=C(/C=C/c1ccc(CN(CCO)CCc2c[nH]c3ccccc23)cc1)NO` [Dacinostat], for which the “% Importing cells” value in data set [1] (1.3 µM) stood at 88%; in data set [1] (10 µM), 76%; in data set [3] (1.3 µM) it was 25%; in data set [3] (10 µM) it was 0%. The “% PI+ cells” value in data set [2] (1.3 µM) was found to be 31%; in data set [2] (10 µM), 35%; in data set [4] (1.3 µM), 45%; in data set [4] (10 µM), 56%.
Consider `Cn1cc(-c2ccc(S(=O)(=O)n3ccc(/C=C/C(=O)Nc4ccccc4N)c3)cc2)cn1` [Domatinostat], for which the “% Importing cells” value is recorded as 21% in data set [1] (1.3 µM), 33% in data set [1] (10 µM), 4% in data set [3] (1.3 µM) and 7% in data set [3] (10 µM). The EC50 in data set [1] was found to be 600 nM. Besides, the Emax in data set [1] was determined as 33%. Moreover, the “% PI+ cells” value in data set [2] (1.3 µM) was determined as 6%; in data set [2] (10 µM), 7%; in data set [4] (1.3 µM), 5%; in data set [4] (10 µM) it was 8%.
On to `Cc1cc(Cl)ccc1OCCCC(=O)NO` [Droxinostat], for which the “% Importing cells” value in data set [1] (1.3 µM) worked out at 12%; in data set [1] (10 µM), 23%; in data set [3] (1.3 µM), 3%; in data set [3] (10 µM), 4%. Besides, the “% PI+ cells” value in data set [2] (1.3 µM) is 1%; in data set [2] (10 µM), 1%; in data set [4] (1.3 µM), 0%; in data set [4] (10 µM) it was 2%.
